This passage reports EC50 results from patent US20230108906A1, “SUBSTITUTED BICYCLIC AND TRICYCLIC UREAS AND AMIDES, ANALOGUES THEREOF, AND METHODS USING SAME” (Arbutus Biopharma Corporation, priority 2019, published 2023).

A value given as a limit tells only on which side of the number the result lay.

For the first experiment, the system named is HBV rcDNA in HepDE19 cells. The experiment can be described thus: HepDE19 assay with bDNA quantitation of HBV rcDNA. The following applies: Hepatitis B virus, HepDE19, 168 h, inhibition of rcDNA formation in HepDE19 cells (HepG2 derived), Tet-free medium, 7 day incubation, Quantigene 2.0 bDNA readout, top concentration 25 μM; read-out: DE-19bDNA EC50. The class given is cell-based, hepatitis B virus (HBV). The method in brief:
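HepDE19 cells (HepG2-derived, Tet-regulated HBV) switched to Tet-free medium, then treated 7 days at 37 °C with compound, 8-point titration from 25 μM, 0.5% DMSO. rcDNA quantified by bDNA with HBV probes; EC50/EC90 via 4-parameter fit. Viability (CC50) by CellTiter-Glo ATP on 5,000 cells/well after 4 days.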
As to `CCN(C(=O)Nc1ccc(F)c(Cl)c1)C1COCc2[nH]c(=O)c3cc(F)c(F)cc3c21` (racemic) [Compound 45, 3-(3-Chloro-4-fluorophenyl)-1-(8,9-difluoro-6-oxo-1,4,5,6-tetrahydro-2H-pyrano[3,4-c]isoquinolin-1-yl)-1-ethylurea], the EC50 was 0.01 µM.

In the case of `CN(C(=O)Nc1ccc(F)c(Cl)c1)C1C[S+]([O-])Cc2[nH]c(=O)c3cc(F)ccc3c21` (stereo not drawn) [Compound 193, 3-(3-Chloro-4-fluorophenyl)-1-(8-fluoro-3-oxido-6-oxo-1,4,5,6-tetrahydro-2H-thiopyrano[3,4-c]isoquinolin-1-yl)-1-methylurea], the EC50 stood at 4.4 µM. The same measure, in the same setting: as for `CN(C(=O)Nc1ccc(F)c(Cl)c1)C1COCc2[nH]c(=O)c3cc(Cl)ccc3c21` (stereo not drawn) [Compound 55, 3-(3-Chloro-4-fluorophenyl)-1-(8-chloro-6-oxo-1,4,5,6-tetrahydro-2H-pyrano[3,4-c]isoquinolin-1-yl)-1-methylurea], the figure is 0.05 µM. Regarding `CN1Cc2[nH]c(=O)c3cc(F)c(F)cc3c2C(N(C)C(=O)Nc2ccc(F)c(C#N)c2)C1` (single isomer, unassigned) [Compound 174, 3-(3-Cyano-4-fluorophenyl)-1-(8,9-difluoro-3-methyl-6-oxo-1,2,3,4,5,6-hexahydrobenzo[c][1,7]naphthyridin-1-yl)-1-methylurea], the EC50 turned out to be 0.31 µM. In the case of `CN(C(=O)Nc1ccc(F)c(Cl)c1)C1COCc2[nH]c(=O)c3cc(C#N)ccc3c21` (stereo not drawn) [Compound 89, 3-(3-Chloro-4-fluorophenyl)-1-(8-cyano-6-oxo-1,4,5,6-tetrahydro-2H-pyrano[3,4-c]isoquinolin-1-yl)-1-methylurea], the EC50 was 1.1 µM. On the same count and under the same terms, as for `O=C(Nc1ccc(F)c(Cl)c1)N(CCCO)C1CCCc2[nH]c(=O)c3ccccc3c21` (stereo not drawn) [Compound 7, 3-(3-Chloro-4-fluorophenyl)-1-(3-hydroxypropyl)-1-(6-oxo-1,2,3,4,5,6-hexahydrophenanthridin-1-yl)urea], the figure is 0.75 µM. Same read-out and setting: for `CC(C)CN(C(=O)Nc1ccc(F)c(F)c1)C1CCc2[nH]c(=O)cc(C(F)(F)F)c21` (stereo not drawn) [Compound 5, 3-(3,4-Difluorophenyl)-1-isobutyl-1-(2-oxo-4-(trifluoromethyl)-2,5,6,7-tetrahydro-1H-cyclopenta[b]pyridin-5-yl)urea] the value was 1.1 µM. On the same count and under the same terms, as for `CN(C(=O)Nc1ccc(F)c(Cl)c1)C1CCCc2[nH]c(=O)c3ccccc3c21` (racemic) [Compound 6, 3-(3-Chloro-4-fluorophenyl)-1-methyl-1-(6-oxo-1,2,3,4,5,6-hexahydrophenanthridin-1-yl)urea], the figure is 0.08 µM; as for `CN(C(=O)Nc1ccc(F)c(C(F)F)c1)[C@@H]1COCc2[nH]c(=O)c3cc(F)c(F)cc3c21` (single isomer, unassigned) [Compound 126], 0.01 µM.

As for `CN(C(=O)Nc1ccc(F)c(C#N)c1)C1COCc2[nH]c(=O)c3ccc(F)cc3c21` (stereo not drawn) [Compound 77, 3-(3-Cyano-4-fluorophenyl)-1-(9-fluoro-6-oxo-1,4,5,6-tetrahydro-2H-pyrano[3,4-c]isoquinolin-1-yl)-1-methylurea], the EC50 came out at 0.05 µM.

`CC(C)CN(C(=O)Nc1ccc(F)c(Cl)c1)C1COCc2[nH]c(=O)c3cc(F)ccc3c21` (stereo not drawn) [Compound 43, 3-(3-Chloro-4-fluorophenyl)-1-(8-fluoro-6-oxo-1,4,5,6-tetrahydro-2H-pyrano[3,4-c]isoquinolin-1-yl)-1-isobutylurea]: the EC50 was found to be 0.01 µM. Same read-out and setting: for `CN(C(=O)Nc1ccc(F)c(Cl)c1)C1COCc2[nH]c(=O)c3c(F)c(F)ccc3c21` (stereo not drawn) [Compound 35, 3-(3-Chloro-4-fluorophenyl)-1-(7,8-difluoro-6-oxo-1,4,5,6-tetrahydro-2H-pyrano[3,4-c]isoquinolin-1-yl)-1-methylurea] the value was 0.19 µM.

In the case of `CN(C(=O)Nc1ccc(F)c(Cl)c1)C1COC(=O)c2[nH]c(=O)c3cc(F)c(F)cc3c21` (racemic) [Compound 152, 3-(3-Chloro-4-Fluorophenyl)-1-(8,9-difluoro-4,6-dioxo-1,4,5,6-tetrahydro-2H-pyrano[3,4-c]isoquinolin-1-yl)-1-methylurea], the EC50 worked out at 0.02 µM.

Staying with this experiment, now noted: Hepatitis B virus, HepDE19, 168 h, read-out: DE-19bDNA EC50 (uM), inhibition of rcDNA formation in HepDE19 cells (HepG2 derived), Tet-free medium, 7 day incubation, Quantigene 2.0 bDNA readout, top concentration 25 μM.
As for `COc1ccc(NC(=O)N(C)[C@@H]2COCc3[nH]c(=O)c4cc(F)c(F)cc4c32)cc1Cl` [Compound 147, (S)-3-(3-Chloro-4-methoxyphenyl)-1-(8,9-difluoro-6-oxo-1,4,5,6-tetrahydro-2H-pyrano[3,4-c]isoquinolin-1-yl)-1-methylurea], the EC50 is 0.14 µM.

Staying with this experiment, now noted: inhibition of rcDNA formation in HepDE19 cells (HepG2 derived), Tet-free medium, 7 day incubation, Quantigene 2.0 bDNA readout, top concentration 25 μM; read-out: DE-19bDNA EC50.
For the molecule `CC(=O)N1Cc2[nH]c(=O)c3cc(F)c(F)cc3c2C(N(C)C(=O)Nc2ccc(F)c(C#N)c2)C1` (single isomer, unassigned) [Compound 177, 1-(3-Acetyl-8,9-difluoro-6-oxo-1,2,3,4,5,6-hexahydrobenzo[c][1,7]naphthyridin-1-yl)-3-(3-cyano-4-fluorophenyl)-1-methylurea], the EC50 is not below 25 µM. On the same count and under the same terms, for `CN(C(=O)Nc1ccc(F)c(C#N)c1)C1CS(=O)(=O)Cc2[nH]c(=O)c3cc(F)c(F)cc3c21` (single isomer, unassigned) [Compound 206, 3-(3-Cyano-4-fluorophenyl)-1-(8,9-difluoro-3,3-dioxido-6-oxo-1,4,5,6-tetrahydro-2H-thiopyrano[3,4-c]isoquinolin-1-yl)-1-methylurea] the value was 4.8 µM; for `CC(=O)N1Cc2[nH]c(=O)c3cc(F)c(F)cc3c2C(N(C)C(=O)Nc2ccc(F)c(C#N)c2)C1` (single isomer, unassigned) [Compound 178, 1-(3-Acetyl-8,9-difluoro-6-oxo-1,2,3,4,5,6-hexahydrobenzo[c][1,7]naphthyridin-1-yl)-3-(3-cyano-4-fluorophenyl)-1-methylurea], 11 µM; for `CN(C(=O)Nc1ccc(F)c(F)c1)C1CNCc2[nH]c(=O)c3cc(F)c(F)cc3c21` (single isomer, unassigned) [Compound 192, 1-(8,9-Difluoro-6-oxo-1,2,3,4,5,6-hexahydrobenzo[c][1,7]naphthyridin-1-yl)-3-(3,4-difluorophenyl)-1-methylurea], 0.04 µM. On the same count and under the same terms, for `CC(C)CN(C(=O)Nc1cc(F)c(F)c(F)c1)C1COCc2[nH]c(=O)c3cc(F)ccc3c21` (single isomer, unassigned) [Compound 113, 1-(8-Fluoro-6-oxo-2,4,5,6-tetrahydro-1H-pyrano[3,4-c]isoquinolin-1-yl)-1-isobutyl-3-(3,4,5-trifluorophenyl)urea] the value was 0.02 µM; for `CS(=O)(=O)CCN(C(=O)Nc1ccc(F)c(Cl)c1)C1COCc2[nH]c(=O)c3cc(F)c(F)cc3c21` (single isomer, unassigned) [Compound 139, 3-(3-Chloro-4-fluorophenyl)-1-(8,9-difluoro-6-oxo-1,4,5,6-tetrahydro-2H-pyrano[3,4-c]isoquinolin-1-yl)-1-(2-(methylsulfonyl)ethyl)urea], 0.6 µM; for `CN(C(=O)N1Cc2ccc(F)cc2C1)C1CNCc2[nH]c(=O)c3cc(F)c(F)cc3c21` (single isomer, unassigned) [Compound 225, N-(8,9-Difluoro-6-oxo-1,2,3,4,5,6-hexahydrobenzo[c][1,7]naphthyridin-1-yl)-5-fluoro-N-methylisoindoline-2-carboxamide], 3.4 µM.
